# From patent US20220275534A1, “Peptide Library Production Method” (The University of Tokyo, priority 2018, published 2022)
# Non-standard residues stand in square brackets, D forms with d. No end group written: not given here. *: point of attachment. prenyl = prenyl group added to Trp by KgpF, CC(C)=CC*
# Key:
# [1] = tested on: KgpF immobilized onto magnetic beads; test: Modification of artificial cyclic peptides with KgpF immobilized onto magnetic beads, solid phase (Example 18; Table 17); format: biochemical, Microcystis aeruginosa; design: key: 5: strong intensity; 4: medium intensity; 3: weak intensity; 2: very weak intensity; 1: no peak; N/A: not observed; details: KgpF Solid phase (magnetic beads) 72 μM, 4° C., 14 hours
# KgpF immobilized onto magnetic beads, sequence (as listed by the source): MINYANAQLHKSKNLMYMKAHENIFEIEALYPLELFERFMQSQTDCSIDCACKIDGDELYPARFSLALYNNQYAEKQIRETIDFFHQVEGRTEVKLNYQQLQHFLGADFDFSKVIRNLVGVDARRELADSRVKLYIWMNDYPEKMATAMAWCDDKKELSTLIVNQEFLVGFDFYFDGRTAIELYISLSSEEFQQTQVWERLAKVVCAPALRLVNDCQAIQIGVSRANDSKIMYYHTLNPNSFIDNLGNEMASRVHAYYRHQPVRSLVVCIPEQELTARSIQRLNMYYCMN
# Description: Dynabeads His-Tag Isolation and Pulldown (Invitrogen) was brought into contact with KgpF having a His-tag added N terminal and the KgpF was immobilized onto the magnetic beads. […] When it exceeded a predetermined amount, immobilization reached saturation.
# (§1) The artificial cyclic peptides shown in Table were synthesized under (Conditions 25) and were brought into contact with KgpF in solid phase under (Conditions 26). In addition, the same peptides were reacted in liquid phase under conditions shown in (Conditions 13) and (Conditions 14) except that the prenylation reaction time was changed to 14 hours.
# (Conditions 25) • FIT system: v8s/v11.1 • 19aa-Met: 0.5 mM • ClAc-D-Tyr-tRNA^fMetCUA: 90 μM • Reaction: 37° C., 60 min. • Scale: 2.5 μL scale
# (§2) After the above reaction was performed, the reaction product was incubated at 25° C. for 12 minutes.
# (§3) Then, a cyclization reaction was performed under the following conditions. • Translated mixture amount: 2.5 μL (mixture obtained by the above reaction) • EDTA: 18 mM • Reaction: 42° C., 60 min. • Scale: 2.75 μL scale
# (Conditions 26) • Translated mixture amount: 2.75 μL (mixture obtained under (Conditions 25)) • KOH: 6.0 mM • Mg(OAc)2: 9.0 mM • Tris-HCl (pH 8.3) 15 mM • KgpF immobilized onto magnetic beads: 72 μM • DMAPP: 2 mM • Reaction: 4° C., 14 hours, rotation mixing
# KgpF [2] = test: Modification of the same peptides with KgpF in liquid phase, Conditions 13/14 with 14 hours (Example 18; Table 17); format: biochemical, Microcystis aeruginosa; design: key: 5: strong intensity; 4: medium intensity; 3: weak intensity; 2: very weak intensity; 1: no peak; N/A: not observed; details: KgpF Liquid phase 160 μM
# Procedure: (§4) (Conditions 13) • FIT system: v8s/v11.0 • 19aa-Met: 0.5 mM • ClAc-D-Tyr-tRNA^fMetCUA: 90 μM • Reaction: 37° C., 60 min. • Scale: 2.5 μL scale
# as §2, §3
# (§5) (Conditions 14) • Translated mixture amount: 2.75 μL (mixture obtained under (Conditions 13)) • KOH: 6.0 mM • Mg(OAc)2: 9.0 mM • Tris-HCl (pH 8.3) 15 mM • KgpF: 160 μM • DMAPP: 2 mM • Reaction: 0° C., 20 hours
# as §1
# Target sequence in this assay (as listed by the source): as above
# MetAP1 = MetAP1 (Homo sapiens, UniProt P53582); test: MetAP1 inhibition test of prenylated cyclic peptide (probe fluorescence); format: biochemical; details: prenylated peptide at 1 μM, 5 μM or 10 μM; cofactor Mn2+ or Co2+ 100 μM; MetAP1 1 μM; 37° C., 120 min (FIG. 13)
# Procedure: A MetAP1 inhibition test was performed in vitro using the prenylated Met2, Met3a-L, and Met3-1 at concentrations of 1 μM, 5 μM or 10 μM in the presence of a MetAP1 cofactor Mn^2+ or Co^2+. In the test, enzymatic activity was measured by detecting probe fluorescence, that is, fluorescence emitted depending on the enzymatic activity of MetAP1.
# (Conditions) • Scale: 20 μL • Cyclic peptide: 1, 5, 10 μM • MnCl2 or CoCl2: 100 μM • MetAP1 enzymatic activity probe: 1 μM • MetAP1: 1 μM • Tris (pH7.6): 25 mM • NaCl: 75 mM • Reaction: 37° C., 120 min.
# After the reaction, the fluorescence intensity of the probe was measured using a plate reader.
# KgpF [3] = test: Prenylation of artificial cyclic peptides with 160 μM KgpF at 0° C., 20 hours (Conditions 13/14 and 19/20; Examples 10, 14, 19; Tables 6 and 18); format: biochemical, Microcystis aeruginosa; design: key: 5: strong intensity; 4: medium intensity; 3: weak intensity; 2: very weak intensity; 1: no peak; N/A: not observed; details: Table 18; Conditions 13 and 14 (160 μM KgpF, 0° C., 20 hours); NSGGVS added to C terminal
# Procedure: The artificial cyclic peptides Clone-M1 to M9 shown below were obtained by translation and synthesis in the artificial translation system (Conditions 13) developed by the present inventors. The peptides thus obtained were then reacted with 160 μM KgpF in the system shown in (Conditions 14) at 0° C. for 20 hours.
# as §4, §2, §3, §5
# Target sequence in this assay (as listed by the source): as above
# The artificial cyclic peptides shown below were obtained by translation and synthesis in the artificial translation system (Conditions 19) developed by the present inventors. The peptides thus obtained were then reacted with 160 μM KgpF in the system shown in (Conditions 20) at 0° C. for 20 hours.
# (Conditions 19) • FIT system: v8s/11.0 • 19aa-Met: 0.5 mM • ClAc-D-Tyr-tRNA^fMetCUA: 90 μM • Reaction: 37° C., 60 min. • Scale: 2.5 μL scale
# (Conditions 20) • Translated mixture amount: 2.75 μL (mixture obtained under (Conditions 19)) • KOH: 6.0 mM • Mg(OAc)2: 9.0 mM • Tris-HCl (pH 8.3): 15 mM • KgpF: 160 μM • DMAPP: 2 mM • Reaction: 0° C., 20 hours
# Then, the compound library was provided for a step of screening cyclic peptides having interaction with an enzyme MetAP1 (Human) as in the scheme shown in FIG. 8. It has been confirmed that with regards to some of the peptides shown in FIG. 10, peptides having these sequences are modified by prenylation as shown in Table 18 by bringing them into contact with KgpF under conditions shown in (Conditions 13) and (Conditions 14).
# KgpF [4] = details: literature finding; cited from earlier work
molecule,measurement,setting,value
Clone-V3 (Ac-[dY]VWNVKIKPKTTKC; thioether (positions not given here); not fully specified (bridges)),"Peak intensity, The number of prenyl groups added 0",[1],1
same,"Peak intensity, The number of prenyl groups added 1",[1],5
same,"Peak intensity, The number of prenyl groups added 0",KgpF [2],1
same,"Peak intensity, The number of prenyl groups added 1",KgpF [2],5
"Met2: cyclic peptide SEQ ID NO: 361 from MetAP1 screening, Fmoc solid-phase synthesis, prenylated with KgpF (YKRRHCLPPAWG; also: cyclic, ring not given here, prenylated with KgpF)",inhibition of the enzymatic activity of MetAP1,MetAP1,inhibit the enzymatic activity of MetAP1
"Met3a-L: cyclic peptide SEQ ID NO: 362 from MetAP1 screening, Fmoc solid-phase synthesis, prenylated with KgpF (YKRKAWLC; also: cyclic, ring not given here, prenylated with KgpF)",inhibition of the enzymatic activity of MetAP1,MetAP1,inhibit the enzymatic activity of MetAP1
Met3: prenylated cyclic peptide identified by screening with MetAP1 as a target (Ac-[dY]KRKAW(prenyl)ICQTAVYCNSGGVS; thioether (positions not given here); not fully specified (C-terminus)),inhibition of the enzymatic activity of MetAP1,MetAP1,inhibit the enzymatic activity of MetAP1
same,"Peak intensity, The number of prenyl groups added 0",KgpF [3],2
same,"Peak intensity, The number of prenyl groups added 1",KgpF [3],5
Clone-T2 (Ac-[dY]LVRERENTWKVTC; thioether (positions not given here); not fully specified (bridges)),"Peak intensity, The number of prenyl groups added 0",[1],1
same,"Peak intensity, The number of prenyl groups added 1",[1],5
same,"Peak intensity, The number of prenyl groups added 0",KgpF [2],1
same,"Peak intensity, The number of prenyl groups added 1",KgpF [2],4
O=C(N[C@@H](Cc1c[nH]c2ccccc12)C(=O)O)OCC1c2ccccc2-c2ccccc21 [Fmoc-Trp-OH],prenylation by KgpF,KgpF [4],low efficiency
Cyclic [WLNGDNNWSTP]: main-chain cyclized peptide of 11 residues formed from precursor peptide KgpE; natural substrate giving Kawaguchipeptin A (SEQ ID NO: 386) (main-chain cyclized),prenylation by KgpF,KgpF [4],prenylates two Trp residues
